In patent publication US20260347403A1, “FUNGICIDAL COMPOUND” (priority 2022, published 2026):
Several values for one entry are separate records, joined by “and”; a condition that tells them apart may be missing. Identical values can stand only once. Numbered stars: 1 amine (or outer) side, 2 acyl side, 3 side chain; on linkers, the order of the positions; unused ones are H or OH. Bridge positions count the residues as written; N and C are the ends. Square brackets hold non-standard residues; d marks the D form. Peptide text beside a SMILES is read from it. * marks the point of attachment. Tridecanoyl(12-Me) = CC(C)CCCCCCCCCCC(=O)*; X1 = NC(=O)CC(O)C(N[*:1])C(=O)[*:2]; NMeF = CN[CH](Cc1ccccc1)C(=O)O; NMeN = CN[CH](CC(N)=O)C(=O)O; X2 = CCC(C)CCCCCCCCCCC(=O)*

How the values were obtained:
Microdochium nivale = test: Liquid culture 96-well mixture assay with malonomicin, Microdochium nivale, 72 hrs; type: cell-based; conditions: read-out: control of fungal growth (% reduction)
Protocol: A stock solution for compound of Formula I(a) was produced in DMSO (max. 10 mg/ml). Malonomicin was produced according to Law et al, 2018 (Nature Catalys is |VOL 1|DECEMBER 2018|977-984). A stock solution of malonomicin was produced in water plus 0.025% Tween® 20.
Assays to test efficacy of mixtures of the lipopeptide compound of Formula I(a) in combination with malonomicin on the control of fungal pathogens in a liquid culture assay were designed for a 96well plate as outlined in table 1:
The 96 well plate design allows to compare disease control of the mixture with disease control of the respective single compound at the same rate.
A master plate with 10× concentrated solution of the compound stock solutions diluted in water plus 0.025% Tween® 20 was prepared. The concentration of DMSO (from the stock of compound of Formula (a)) and Tween® 20 was kept constant in all cells of the master plate. 10 μl was transferred from the master plate to a 96well test plate. The nutrient broth containing the fungal spores/mycelia fragments was then added to the test plate to give an end concentration of 1× for the tested compounds (as outlined in Table 8). The test plates were incubated in the dark at 24 °C and 96% rh. The inhibition of fungal growth was determined photometrically after ca 3 days, and percent fungal growth reduction relative to the untreated check was calculated.
Microdochium nivale (EPPO Code: MONGNI)
Conidia of the fungus from cryogenic storage were directly mixed into nutrient broth (PDB: potato dextrose broth).

Puccinia recondita = test: Leaf disc mixture assay with malonomicin, Puccinia recondita, curative spray timing, 8 dpi; type: in vivo, Puccinia recondita on wheat (cultivar Kanzler)
Protocol: A stock solution for the lipopeptide compound of Formula I(a) was produced in DMSO (max. 10 mg/ml). Malonomicin was produced according to Law et al, 2018 (Nature Catalys is |VOL 1|DECEMBER 2018|977-984). A stock solution of malonomicin was produced in water plus 0.025% Tween®20.
Assays to test efficacy of mixtures of compound of Formula I(a) in combination with malonomicin on the control of fungal pathogens in a leaf disc assay were designed for two 24well plates.
Table 22 and Table 23. Outline of 24well testplate (1) and testplate (2) including concentration of compounds sprayed per well. The upper number in the cell indicates compound of Formula I(a) concentration (ppm), the lower number malonomicin concentration (ppm). Column (1) holds a dilution series of compound of Formula I(a), row (2-D) hold a dilution series of malonomicin. Well 2-D-(1) represents an untreated check. This design was applied for tests including Puccinia recondita (EPPO code: PUCCRE) with preventive and curative spray timing.
A first set of master plates with 1× concentrated spray solution of the lipopeptide compound of Formula I(a) stock diluted in water with concentrations according to table 22, table 23, table 25 or table 26, respectively, was prepared. Each well contained 2% DMSO and 0.025% Tween20. Accordingly, a second set of master plates with 1× concentrated malonomicin stock diluted in water was prepared. Each well of the second set contained 0.025% Tween20. Leaf segments placed on agar in 24well plates were sprayed with 8 μl of solution from the master plate containing the lipopeptide compound of Formula I(a) and the leaf segments were let to dry, followed 2 hours later by 8 μl of solution from the master plate containing malonomicin. After second sprays had dried, leaf segments were infected with fungal spores to obtain a preventive application timing. Alternatively, leaf segments infected one day before spray of the compounds were used, resulting in a curative spray timing. In addition, several plates were produced where leaf segments were sprayed 2× in absence of test compound (with only DMSO and Tween20), representing the untreated check samples. For each leaf segment percent leaf coverage of disease symptoms was assessed. Percent leaf coverage reduction relative to the untreated check was calculated. Efficacy of the mixtures was tested in duplicate and on different fungal species. Reported efficacy values are the average of two replicate results.
Puccinia recondita (EPPO Code: PUCCRE) with Curative Spray Timing.
Wheat (cultivar Kanzler) leaf segments are placed on agar in multiwell plates (24-well format). The leaf disks are then inoculated with a spore suspension of the fungus. One day after inoculation the test solution is sprayed (8 ul per well). After appropriate incubation the activity of a compound is assessed 8 dpi (days after inoculation) as curative fungicidal activity

Zymoseptoria tritici = test: Leaf painting assay in wheat seedling, Zymoseptoria tritici; type: in vivo, Zymoseptoria tritici on wheat (variety Riband); conditions: for % reduction of fungal growth: middle segment; for control on the treated area (middle segment): up to, Table 6, Zymoseptoria tritici
Protocol: Wheat seedlings of the variety Riband (for Zymoseptoria tritici trials) or variety Arina (for Puccinia recondite trials) were grown in a glasshouse until 14 d after seeding. At this time, such seedlings usually have a first leaf fully emerged (designated L1), a second leaf fully emerged (L2) and a third leaf (L3) that was partially emerged and in the process of development. Using a permanent pen, two dots were applied on the second leaf such as to generate three segments of roughly equal size: Segment A (at the base), segment B (middle part) and segment C (upper part of the leaf). A stock solution of the test compound was produced in DMSO at a concentration of 10′000 ppm. […] The diluted compound was applied to the middle segment of L2 using a conventional cotton stick; the cotton stick was soaked in the diluted compound and rubbed several times on the adaxial leaf surface between the two marks. 1 day later, the complete plant was inoculated with a fungal spore suspension using a paint brush and application of the spore suspension until before run-off.
For infection with Zymoseptoria tritici: The test plants were inoculated by spraying a spore suspension on them 1 day after application (1.5Mio spores per ml in water supplemented with 0.01% Tween®20). After an incubation period of 4 days at 22 °C/21 °C. (day/night) and 95% rh, the inoculated test plants were kept at 22 °C/21 °C (day/night) and 70% rh in a greenhouse. Efficacy was assessed by visual evaluation directly when an appropriate level of disease appears on untreated check plants (usually >80% disease cover at 16-19 days after inoculation).
The three segments of the leaf were evaluated individually.

NC[C@@H]1NC(=O)C(C(=O)CC(NC(=O)[C@@H](N)CO)(C(=O)O)C(=O)O)=C1O [malonomicin, {[(2S)-2-amino-3-hydroxypropanoyl]amino}{2-[(5S)-5-(aminomethyl)-4-hydroxy-2-oxo-2,5-dihydro-1H-pyrrol-3-yl]-2-oxoethyl}malonic acid]
inhibition of growth at 1 ppm (Microdochium nivale; malonomicin 1.00 ppm): 20%
inhibition of growth at 3 ppm (Microdochium nivale; malonomicin 3.00 ppm): 20%
inhibition of growth at 7.81 ppm (Microdochium nivale; malonomicin 7.81 ppm): 20%
inhibition of growth at 15.63 ppm (Microdochium nivale; malonomicin 15.63 ppm): 20%
inhibition of growth at 31.25 ppm (Microdochium nivale; malonomicin 31.25 ppm): 20%
inhibition of growth at 62.5 ppm (Microdochium nivale; malonomicin 62.5 ppm): 50%
inhibition of growth at 125 ppm (Microdochium nivale; malonomicin 125 ppm): 90%
inhibition of growth at 250 ppm (Microdochium nivale; malonomicin 250 ppm): 100%
inhibition of growth at 500 ppm (Microdochium nivale; malonomicin 500 ppm): 100%
inhibition of growth at 1000 ppm (Microdochium nivale; malonomicin 1000 ppm): 100%
control of fungal growth (% reduction of symtoms on the leaf segment as compared to untreated check) (Puccinia recondita; column (2): malonomicin 200 ppm, compound of Formula I(a) lines 1-A to 2-D = 200, 100, 50, 25, 12.5, 6.25, 3.13, 0 ppm): 100%
control of fungal growth (% reduction of symtoms on the leaf segment as compared to untreated check) (Puccinia recondita; column (3): malonomicin 20 ppm, compound of Formula I(a) lines 1-A to 2-D = 200, 100, 50, 25, 12.5, 6.25, 3.13, 0 ppm): 100%
control of fungal growth (% reduction of symtoms on the leaf segment as compared to untreated check) (Puccinia recondita; column (4): malonomicin 6.67 ppm, compound of Formula I(a) lines 1-A to 2-D = 200, 100, 50, 25, 12.5, 6.25, 3.13, 0 ppm): 100%
control of fungal growth (% reduction of symtoms on the leaf segment as compared to untreated check) (Puccinia recondita; column (5): malonomicin 2.22 ppm, compound of Formula I(a) lines 1-A to 2-D = 200, 100, 50, 25, 12.5, 6.25, 3.13, 0 ppm): 70%
control of fungal growth (% reduction of symtoms on the leaf segment as compared to untreated check) (Puccinia recondita; column (6): malonomicin 0.74 ppm, compound of Formula I(a) lines 1-A to 2-D = 200, 100, 50, 25, 12.5, 6.25, 3.13, 0 ppm): 35%

CC(C)CCCCCCCCCCC(=O)NC1C(=O)NC(CC(=O)O)C(=O)NC(C(O)CC(N)=O)C(=O)NC(CO)C(=O)N(C)C(CC(N)=O)C(=O)N(C)C(Cc2ccccc2)C(=O)NC(CCC(N)=O)C(=O)NC(CCC(=O)O)C(=O)OC1C (centres unmarked) [Formula I(a)] ({Tridecanoyl(12-Me)}-TD[X1]S[NMeN][NMeF]QE; ester 1-C; configuration not given here)
inhibition of growth at 1.56 µg/mL (Microdochium nivale; I(a) 1.56 ppm): 0%
inhibition of growth at 3.125 µg/mL (Microdochium nivale; I(a) 3.125 ppm): 0%
inhibition of growth at 6.25 µg/mL (Microdochium nivale; I(a) 6.25 ppm): 0%
inhibition of growth at 12.5 µg/mL (Microdochium nivale; I(a) 12.5 ppm): 0%
inhibition of growth at 25 µg/mL (Microdochium nivale; I(a) 25 ppm): 0%
inhibition of growth at 50 µg/mL (Microdochium nivale; I(a) 50 ppm): 0%
inhibition of growth at 100 µg/mL (Microdochium nivale; I(a) 100 ppm): 0%
% reduction of fungal growth (Zymoseptoria tritici; 20 ppm): 0%
% reduction of fungal growth (Zymoseptoria tritici; 200 ppm): 46%
control on the treated area (middle segment) (Zymoseptoria tritici): up to 70%
control of fungal growth (% reduction of symtoms on the leaf segment as compared to untreated check) (Puccinia recondita; column (1): compound of Formula I(a) alone, lines 1-A to 2-C = 200, 100, 50, 25, 12.5, 6.25, 3.13 ppm): 0% and 10%

CCC(C)CCCCCCCCCCC(=O)NC1C(=O)NC(CC(=O)O)C(=O)NC(C(O)CC(N)=O)C(=O)NC(CO)C(=O)N(C)C(CC(N)=O)C(=O)N(C)C(Cc2ccccc2)C(=O)NC(CCC(N)=O)C(=O)NC(CCC(=O)O)C(=O)OC1C (centres unmarked) [Formula I(b)] (X2-TD[X1]S[NMeN][NMeF]QE; ester 1-C; configuration not given here)
% reduction of fungal growth (Zymoseptoria tritici; 20 ppm): 0%
% reduction of fungal growth (Zymoseptoria tritici; 200 ppm): 31%
control on the treated area (middle segment) (Zymoseptoria tritici): up to 70%
